For this assay, the system named is MDA-MB-468 breast. The assay can be described thus: inhibition of tumour cell growth, NCI panel, 48 h.

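Method: 48-hour compound exposure of cells in 96-well plates, five concentrations, linear interpolation of endpoints. At the GI50, growth is halved. TGI is the concentration that stops growth completely.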

In the case of `COc1cc2c(c(OC)c1OC)-c1ccc(SC)c(=O)cc1[C@@H](N)CC2`, the GI50 was 0.0786 µM and the TGI is more than 100 µM.

With `CCN1CCN(c2nc(C)cc(N(CCCNc3ccnc4cc(Cl)ccc34)Cc3ccc4c(c3)OCO4)n2)CC1`, the GI50 is 1.92 µM and the TGI was found to be 4.93 µM.

With `CC(C)(C)c1cc(C(=O)Nc2ccccc2C(=O)NCCN)cc(C(C)(C)C)c1`, the GI50 is 2.01 µM and the TGI came to 3.59 µM.

As for `COc1cc(-c2cc(/C=C/C(=O)c3ccc(F)c(F)c3)[nH]n2)cc(OC)c1OC`, the GI50 was 2.27 µM and the TGI was 9.47 µM.

Consider `CCOC(=O)[C@@H](C)C[C@H](Cc1ccccc1)NC(=O)c1csc([C@@H](C[C@H](C(C)C)N(C)C(=O)[C@@H](NC(=O)[C@H]2CCCCN2C)C(C)(C)CC)OC(C)=O)n1`, for which the GI50 is less than 0.00167 µM.

Take `COC1(CC[C@@H](C)COC2OC(CO)C(O)C(O)C2O)O[C@H]2C[C@H]3[C@@H]4CC=C5C[C@@H](OC6OC(CO)C(OC7OC(C)C(O)C(O)C7O)C(O)C6OC6OC(C)C(O)C(O)C6O)CC[C@]5(C)[C@H]4CC[C@]3(C)[C@H]2[C@@H]1C` (stereo not given in full): the GI50 is 1.38 µM and the TGI came to 3.01 µM.

On to `N#CCn1c(=O)c(Oc2ccc(F)cc2F)cc2cnc(NC3CCOCC3)nc21`, for which the GI50 is more than 18.9 µM and the TGI was more than 25 µM.

Regarding `CN1CCN(CC(=O)N(C)c2ccc(N=C(c3ccccc3)c3c(O)[nH]c4ccc(C#N)cc34)cc2)CC1`, the GI50 was 10.7 µM and the TGI stood at 24.1 µM.

For `Oc1ccc(Cl)cc1C(c1cc(Cl)ccc1O)C(Cl)(Cl)Cl`, the GI50 was 2.58 µM and the TGI amounted to 8.11 µM.

Turning to `COc1ccc2nc3cc(Cl)ccc3c(NCCCNCCO)c2c1`, the GI50 is 0.454 µM and the TGI was 1.89 µM.

Regarding `COc1cc2cc(Oc3ccc(NC(=O)Nc4cc(C(F)(F)F)cc(C(F)(F)F)c4)cc3)c(C)nc2cc1OCCN1CCOCC1`, the GI50 is 1.22 µM and the TGI came to 3.76 µM.

For `CCOCC1(COCC)CCC(c2[nH]ncc2CN(C)CCNC)CC1`, the GI50 was 46.6 µM and the TGI is more than 100 µM.

On to `COc1cc2c(c(OC)c1OC)-c1ccc(NN(C(=O)c3ccccc3)C(=O)c3ccccc3)c(=O)cc1[C@@H](NC(C)=O)CC2` (tested in a mixture with another compound), for which the GI50 is 2.08 µM and the TGI was found to be 6.71 µM.

With `O=C(Nc1ccc(Oc2ccc3nc(NC(=O)c4ccco4)[nH]c3c2)cc1)Nc1cc(C(F)(F)F)ccc1F`, the GI50 was 1.37 µM and the TGI was found to be 11.5 µM.

Turning to `CN=C(N)c1ccc(N=C(N)c2ccc(-c3ccc(C(N)=Nc4ccc(C(N)=NC)cc4)cc3)cc2)cc1`, the GI50 was 74.4 µM and the TGI is more than 100 µM.

`O=C1NC(=NCc2ccccc2Cl)S/C1=C\c1ccc2ncccc2c1`: the GI50 was 3.61 µM and the TGI was more than 25 µM.

In the case of `COc1cnc2c(c1)C(=O)c1c-2n(CCCNC2=NCCS2)c(=O)c2cc(F)ccc12`, the GI50 is 0.19 µM and the TGI was 2.02 µM.

`O=C1CC(c2c[nH]c3ccc(F)cc23)C(=O)N1` (stereo not given): the GI50 was more than 100 µM and the TGI was more than 100 µM.

`COc1ccc(-c2cc(-c3ccc(Nc4nc(Nc5ccccc5)nc(Nc5ccc(Cl)cc5)n4)cc3)nc(N)n2)cc1`: the GI50 was 10.2 µM and the TGI was determined as 34.2 µM.

For `O=C1/C(=C/c2ccc(Cl)c(Cl)c2)CN(C(=O)C(Cl)Cl)C/C1=C\c1ccc(Cl)c(Cl)c1`, the GI50 was 0.177 µM and the TGI worked out at 0.398 µM.

As for `Fc1ccc(-c2cc3nc(C(Cl)Cl)nc(-c4ccc(Cl)cc4)n3n2)cc1`, the GI50 was 1.73 µM and the TGI amounted to 4.12 µM.

For `O=C1NC(=S)S/C1=C\c1cn(-c2ccccc2)nc1-c1ccccc1`, the GI50 was 6.83 µM and the TGI was 39.9 µM.

`COc1ccc(C(O)c2cc3c(N)c(C(=O)Nc4ccc(Cl)cc4)sc3nc2C)cc1` (stereo not given): the GI50 was 1.94 µM and the TGI is 8.87 µM.

Consider `O=C1Nc2ccc(Br)cc2C12CC(c1ccccc1)=NN2` (stereo not given), for which the GI50 was 3.04 µM and the TGI is 41.8 µM.

Regarding `NCCN1CCN(c2nc(-c3ccccc3)nc3nc(-c4ccccc4)oc23)CC1`, the GI50 is 1.63 µM and the TGI was determined as 3.2 µM.

As for `Clc1nccc2c(-c3csc(-c4c[nH]c5ccc(Br)cc45)n3)c[nH]c12`, the GI50 was 1.18 µM and the TGI is 3.81 µM.

On to `O=C1NC(=NCCc2ccc(F)cc2)S/C1=C\c1ccc2ncccc2c1`, for which the GI50 was more than 20.9 µM and the TGI was more than 25 µM.

Consider `COc1cc(/C=C/C(=O)c2cccc(-n3cc(-c4cc(OC)c(OC)c(OC)c4)[nH]c3=O)c2)cc(OC)c1OC`, for which the GI50 is 1.57 µM and the TGI was 3.25 µM.

For the compound `c1cc(N[C@@H]2CCNC2)nc(-c2cnc3ccc(-c4cn[nH]c4)cn23)c1`, the GI50 was 0.957 µM and the TGI was 2.52 µM.

Take `CN(C)c1ccc(/C=C\c2ccnc3ccccc23)cc1`: the GI50 is 0.233 µM and the TGI amounted to 0.564 µM.

As for `COc1cc(/C=C2\C(=O)N(Cc3ccc(Cl)cc3)c3ccccc32)cc(OC)c1OC`, the GI50 is 2.66 µM and the TGI was determined as 8.06 µM.

Take `CC(C)=CCc1cc2c(cc1O)C1=C(C(=O)C3=C(C1=O)S(=O)(=O)CCN3)C(C=C(C)C)O2` (stereo not given): the GI50 was 0.54 µM and the TGI is 2.59 µM.

Take `C#Cc1cccc(Nc2ncnc3cc(NC(=O)CCl)ccc23)c1`: the GI50 was 0.716 µM and the TGI is 3.16 µM.

Regarding `c1ccc(-c2oc(-c3ccccc3)c(CN3CCCCC3)c2CN2CCCCC2)cc1`, the GI50 was 1.45 µM and the TGI was 3.98 µM.

Regarding `C=C1C(=O)O[C@H]2[C@H]1CC/C(COC(=O)c1cc(OC)c(OC)c(OC)c1)=C\CC[C@@]1(C)O[C@@H]21`, the GI50 is 0.344 µM and the TGI was 2.02 µM.

For `COc1ccc2c(c1)OC(N)=C(C#N)C2c1cc(OC)c(OC)c(OC)c1` (stereo not given), the GI50 was 0.0239 µM and the TGI was 0.0688 µM.

Take `CC(=O)Nc1ccc(C(=O)CCl)cc1`: the GI50 is 1.81 µM and the TGI worked out at 4.52 µM.

`CCCCN(CCCC)C(=O)[C@H](CC)[C@@H]1CC[C@@H](C)[C@@H]([C@H](C)[C@@H](O)[C@@H](C)C(=O)[C@H](CC)C2O[C@]3(C=C[C@@H](O)[C@]4(CC[C@@](C)([C@H]5CC[C@](O)(CC)[C@H](C)O5)O4)O3)[C@H](C)C[C@@H]2C)O1` (stereo not given in full): the GI50 was 1.47 µM and the TGI was 3.89 µM.

Take `CSC1=NC(=Nc2c(C)cccc2C)C2(CCC(C(C)(C)C)CC2)N1c1ccc(Cl)cc1` (stereo not given): the GI50 is 4.83 µM and the TGI was more than 100 µM.

Regarding `NS(=O)(=O)c1ccc(Nc2cc(-c3ccc(O)c(F)c3)[nH]n2)cc1`, the GI50 was 10.5 µM and the TGI is more than 25 µM.

In the case of `COc1cc(CNCCCCCCN2C(=O)c3cccc4cccc(c34)C2=O)ccc1O`, the GI50 was 2.78 µM and the TGI amounted to 9.33 µM.

Take `O=C1Nc2ccc(Cl)cc2/C1=C\c1c(-c2ccc(Cl)cc2)nc2sc(C3CC3)nn12`: the GI50 is 6.68 µM and the TGI is 21.2 µM.

Turning to `O=C(Nc1ccc(Oc2ccc(F)cc2)cc1)[C@@H]1C[C@@H](Cc2ccc(F)cc2)CN1C(=O)Cn1ccnn1`, the GI50 was 4.5 µM and the TGI is 29 µM.

The values are drawn from PubChem BioAssay (NCI).
